The values below come from ChEMBL document CHEMBL5244229, “Thiazole-containing compounds as therapeutic targets for cancer therapy” (Eur J Med Chem, 2020).

Converted amounts (≈) assume the structure as drawn. Where only a bound is given, the exact number is not on record here.

One test concerns K562. Kind of test: Anticancer activity against human K562 cells. In kind it is functional, cell-based.
For test [1], the system named is HepG2. The experiment in a line: Cytotoxicity against human HepG2 cells assessed as reduction in cell viability measured after 48 hrs by MTS assay. It counts as functional, cell-based. To be noted: HepG2, 48 h.
A further test relates to SMMC-7721. The experiment in a line: Cytotoxicity against human SMMC-7721 cells. It counts as functional, cell-based.
The test system of another test is HCT-116. Kind of test: Anticancer activity against human HCT-116 cells. In kind it is functional, cell-based.
Test [2] deals with HepG2. Kind of test: Anticancer activity against human HepG2 cells. It counts as functional, cell-based.
For test [3], the system named is HepG2. Kind of test: Cytotoxicity against human HepG2 cells. It counts as functional, cell-based.
Another test deals with Colon cell line. Kind of test: Cytotoxicity against human Colon cell line. In kind it is functional, cell-based. To be noted: Homo sapiens, Colon cell line.
For test [4], the target named is Epidermal growth factor receptor (Homo sapiens, UniProt P00533). The experiment in a line: Inhibition of EGFR (unknown origin).
Sequence of Epidermal growth factor receptor (P00533 whole entry): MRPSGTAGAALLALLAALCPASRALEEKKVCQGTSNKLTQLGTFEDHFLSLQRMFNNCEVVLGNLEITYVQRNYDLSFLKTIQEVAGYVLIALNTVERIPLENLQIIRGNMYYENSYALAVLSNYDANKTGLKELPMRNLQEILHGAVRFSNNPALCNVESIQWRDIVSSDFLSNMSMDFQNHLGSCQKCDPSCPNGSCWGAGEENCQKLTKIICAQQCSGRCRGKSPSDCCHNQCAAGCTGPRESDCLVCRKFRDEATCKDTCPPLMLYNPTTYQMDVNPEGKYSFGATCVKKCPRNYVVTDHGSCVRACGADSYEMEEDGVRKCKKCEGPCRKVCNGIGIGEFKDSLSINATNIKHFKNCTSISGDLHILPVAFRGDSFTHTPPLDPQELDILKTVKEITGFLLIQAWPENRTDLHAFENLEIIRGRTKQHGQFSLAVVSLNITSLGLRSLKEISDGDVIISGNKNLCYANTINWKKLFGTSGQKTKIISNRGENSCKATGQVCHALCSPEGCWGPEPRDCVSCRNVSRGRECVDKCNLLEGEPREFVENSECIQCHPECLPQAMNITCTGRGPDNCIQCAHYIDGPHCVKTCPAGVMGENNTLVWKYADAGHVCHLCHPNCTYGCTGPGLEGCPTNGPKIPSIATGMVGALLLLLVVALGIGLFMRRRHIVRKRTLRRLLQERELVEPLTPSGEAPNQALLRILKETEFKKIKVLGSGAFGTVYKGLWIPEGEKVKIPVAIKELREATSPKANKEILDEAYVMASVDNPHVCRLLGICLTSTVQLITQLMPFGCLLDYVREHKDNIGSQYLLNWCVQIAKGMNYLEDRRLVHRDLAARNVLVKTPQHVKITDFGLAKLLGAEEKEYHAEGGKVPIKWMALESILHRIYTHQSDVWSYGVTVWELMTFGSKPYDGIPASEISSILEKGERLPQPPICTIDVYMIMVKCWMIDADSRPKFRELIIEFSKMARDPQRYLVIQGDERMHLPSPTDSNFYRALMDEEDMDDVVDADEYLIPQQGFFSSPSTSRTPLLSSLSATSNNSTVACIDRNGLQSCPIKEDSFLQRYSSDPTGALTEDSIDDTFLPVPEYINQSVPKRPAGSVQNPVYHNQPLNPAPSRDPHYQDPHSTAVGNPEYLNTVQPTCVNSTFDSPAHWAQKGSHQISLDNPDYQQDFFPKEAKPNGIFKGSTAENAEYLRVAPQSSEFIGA
For a further test, the system named is MV4-11. Kind of test: Anticancer activity against human MV4-11 cells. In kind it is functional, cell-based.
The test system of test [5] is MCF7. The experiment in a line: Anticancer activity against human MCF7 cells. In kind it is functional, cell-based.
For a further test, the system named is HeLa. Kind of test: Cytotoxicity against human HeLa cells. It counts as functional, cell-based.
For test [6], the system named is HepG2. Kind of test: Cytotoxicity against human HepG2 cells assessed as reduction in cell viability incubated for 24 hrs by WST-1 assay. In kind it is functional, cell-based. Conditions: HepG2, 24 h.
Another test deals with AGS. Kind of test: Cytotoxicity against human AGS cells. It counts as functional, cell-based.
In a further test the test system is SNU-638. The experiment in a line: Cytotoxicity against human SNU-638 cells. In kind it is functional, cell-based.
A further test concerns SK-HEP1. The experiment in a line: Cytotoxicity against human SK-HEP1 cells. It counts as functional, cell-based.
Test [7] can be described thus: Cytotoxicity against human SNU-216 cells. It counts as functional, cell-based.
For another test, the system named is MKN-74. The experiment in a line: Cytotoxicity against human MKN-74 cells. In kind it is functional, cell-based.
A further test relates to Hep 3B2. Kind of test: Cytotoxicity against human Hep3B cells. It counts as functional, cell-based.
The subject of test [8] is MCF7. The experiment in a line: Cytotoxicity against human MCF7 cells. In kind it is functional, cell-based.
The subject of test [9] is HepG2. The experiment in a line: Antitumor activity against human HepG2 cells. In kind it is functional, cell-based.
Test [10] relates to MCF7. Kind of test: Antitumor activity against human MCF7 cells. In kind it is functional, cell-based.

Turning to `Cc1nc(N2N=C(c3cccs3)CC2c2ccc(C3CC(c4cccs4)=NN3c3nc(C)c(/N=N/c4ccc([N+](=O)[O-])cc4)s3)cc2)sc1/N=N/c1ccc([N+](=O)[O-])cc1` (centres undefined), the IC50 in the test with K562 came to 0.02 µM; in the test with HepG2 [1], 1.37 µM; in the test with SMMC-7721, 3 µM; in the test with HCT-116, 1.37 µM; with HepG2 [2] it was 0.15 µM.
As for `Cc1ccc(S(=O)(=O)C(Cl)(Cl)c2nc(C)sc2[N+](=O)[O-])cc1`, the 50% cytotoxic concentration (CC50) in the test with HepG2 [3] was under 2.5 µM; with Colon cell line it was 1 µM.
With `FC(F)(F)c1ccc(/C=N/Nc2nc(-c3ccc(Cl)cc3Cl)cs2)cc1`, the IC50 in [4] worked out at 5.48 µM.
For the compound `COc1ccc(S(=O)(=O)Nc2ccc(-c3csc(N/N=C/c4ccc(N(CCCl)CCCl)cc4)n3)cc2)cc1`, the IC50 was found to be 3.02 µg/mL in the test with HCT-116 and 2.17 µM with MV4-11.
For `O=[N+]([O-])c1ccc(-c2nn(-c3nc(-c4ccc(Br)cc4)cs3)cc2/C=N/c2nc[nH]n2)cc1`, the GI50 in the test with MCF7 [5] is over 80 µg/mL; in the test with HeLa, 1.2 µg/mL (≈ 2.3 µM).
In the test with HepG2 [3], `Cc1nc(C(Cl)(Cl)S(=O)(=O)c2ccc(Br)cc2)c([N+](=O)[O-])s1` displayed a CC50 of under 2.5 µM.
On to `COc1ccc(/N=N/c2sc(N/N=C(/C)c3sc(N)nc3C)nc2C)cc1`, for which the 50% inhibitory concentration (IC50) in the test with HepG2 [6] came out at 0.5 µM.
The compound `CC1=C(C(=O)Nc2nc(-c3ccccc3)cs2)C(c2ccc(Cl)cc2)C(C(=O)Nc2nc(-c3ccccc3)cs2)=C(C)N1` yielded an IC50 with HeLa of 0.002 µM.
In the case of `C=C(NC(=O)C(=C)NC(=O)c1ccc2c(n1)-c1coc(n1)C(=O)NC(=O)CNC(=O)c1coc(n1)C(=C)NC(=O)[C@H](C(C)(C)O)NC(=O)C(=O)NC(=O)c1nc(oc1C)/C(=C\C)NC[C@H](C(C)C)NC(=O)c1csc-2n1)C(N)=O`, the half-maximal inhibitory concentration (IC50) with AGS amounted to 0.99 µM; with SNU-638, 0.75 µM; in the test on SK-HEP1, 0.99 µM; in test [7] it was 0.88 µM; in the test with MKN-74, 2.43 µM; in the test with HepG2 [3], 1.3 µM. In the test on Hep 3B2, this compound returned an IC50 of 1.04 µM.
As for `C/C(=N/Nc1nc(C)c(/N=N/c2ccc(Cl)cc2)s1)c1sc(N)nc1C`, the half-maximal inhibitory concentration (IC50) in the test with HepG2 [6] came out at 0.52 µM.
As to `COc1ccc(/C=C(/C#N)c2nc(-c3cc4ccccc4oc3=O)cs2)cc1OC`, the IC50 in the test on HepG2 [1] is 2.89 µM.
In the case of `C=C(NC(=O)C(=C)NC(=O)c1csc(C2=N[C@@H]3c4csc(n4)[C@H]4NC(=O)c5csc(n5)[C@H]([C@](C)(O)[C@@H](C)O)NC(=O)[C@H]5CSC(=N5)/C(=C/C)NC(=O)[C@H]([C@@H](C)O)NC(=O)c5csc(n5)[C@]3(CC2)NC(=O)[C@H](C)NC(=O)C(=C)NC(=O)[C@H](C)NC(=O)[C@H]([C@@H](C)CC)N[C@@H]2C=Cc3c([C@H](C)O)cc(nc3[C@H]2O)C(=O)O[C@@H]4C)n1)C(N)=O` [THIOSTREPTON], the IC50 in the test with AGS amounted to 0.4 µM; with SNU-638, 0.3 µM; with SK-HEP1, 0.74 µM; in test [7], 0.41 µM; with MKN-74, 4.2 µM; in the test on HepG2 [3], 0.71 µM. Besides, the half-maximal inhibitory concentration (IC50) in the test with Hep 3B2 was determined as 0.82 µM.
As for `O=S(=O)(O)c1ccc(/N=N/C(=N\c2nc(-c3ccccc3)cs2)c2cc3ccccc3nc2Cl)cc1`, the 50% inhibitory concentration (IC50) is 13.1 µM with K562 and 16 µM in the test with MCF7 [8].
For `O=C1N/C(=N/c2ccc(-c3nc4ccccc4s3)cc2)S/C1=C/c1ccc([N+](=O)[O-])cc1`, the IC50 with HepG2 [9] stood at 0.036 µM; in the test with MCF7 [10], 0.048 µM.
The compound `Cc1nc(C(Cl)(Cl)S(=O)(=O)c2ccc(F)cc2)c([N+](=O)[O-])s1` gave a CC50 with HepG2 [3] of under 2.5 µM.
`CC/C(=C(\c1ccccc1)c1ccc(OCCN(C)C)cc1)c1ccccc1` [TAMOXIFEN]: the half-maximal inhibitory concentration (IC50) with MCF7 [5] stood at 3.53 µM.
In turn, `COc1ccc(-c2csc(NC(=O)CN3CCc4ccccc4C3)n2)cc1` registered a median lethal concentration (LC50) with Colon cell line of 28 µg/mL (≈ 73.8 µM).
For the compound `O=C(NC1=NC2C(=O)NN=C(c3ccc(Br)cc3)C2S1)Nc1ccc(Cl)cc1` (centres undefined), in test [4], the IC50 is 0.08 µM.
Consider `C=C(NC(=O)C(=C)NC(=O)c1csc(C2=N[C@@H]3c4csc(n4)[C@H]4NC(=O)c5csc(n5)C([C@](C)(O)[C@@H](C)O)NC(=O)[C@H]5CSC(=N5)/C(=C/C)NC(=O)C([C@@H](C)O)NC(=O)c5csc(n5)[C@]3(CC2)NC(=O)[C@H](C)NC(=O)C(=C)NC(=O)C(=C)NC(=O)[C@H](C(C)C)N[C@H]2C=Cc3c([C@H](C)O)cc(nc3[C@H]2O)C(=O)O[C@@H]4C)n1)C(N)=O` (some centres undefined), for which the 50% inhibitory concentration (IC50) is 0.71 µM in the test with AGS; 0.91 µM with SNU-638; 1.6 µM in the test with SK-HEP1; 0.75 µM in [7]; 6.21 µM in the test with MKN-74; 1.3 µM in the test with HepG2 [3]. Further, the IC50 in the test with Hep 3B2 came to 1.9 µM.
Turning to `O=S(=O)(Nc1ccc(-c2csc(N/N=C/c3ccc(N(CCCl)CCCl)cc3)n2)cc1)c1ccc(F)cc1`, the IC50 in the test on HCT-116 stood at 3.02 µg/mL; in the test with MV4-11, 2.17 µM.
In the test on HepG2 [3], `Cc1nc(C(Cl)(Cl)S(=O)(=O)c2ccccc2)c([N+](=O)[O-])s1` had a half-maximal cytotoxic concentration (CC50) of under 2.5 µM.
In the case of `C/C=C1\NC(=O)[C@H]([C@@H](C)O)NC(=O)c2csc(n2)-c2ccc(-c3nc(-c4nc(C(=O)N/C(=C/C)C(=O)NC[C@H](C)O)cs4)cs3)nc2-c2csc(n2)[C@H]([C@@H](C)O)NC(=O)c2csc(n2)[C@H](C(C)C)NC(=O)c2csc1n2`, the IC50 with AGS turned out to be 0.5 µM; with SNU-638, 0.41 µM; in the test on SK-HEP1, 0.83 µM; in test [7] it was 0.44 µM; in the test on MKN-74, 7.3 µM; in the test on HepG2 [3] it was 0.91 µM. In the test on Hep 3B2, this compound showed a half-inhibitory concentration (IC50) of 0.94 µM.
On to `C/C(=N/N=c1/[nH]c(C)c(/N=N/c2ccccc2)s1)[C@H]1CC[C@H]2[C@@H]3CCC4=CC(=O)CC[C@]4(C)[C@H]3CC[C@]12C`, for which the IC50 with MCF7 [5] amounted to 8.87 µM.
As for `C/C=C1\NC(=O)[C@H]([C@@H](C)O)NC(=O)c2csc(n2)-c2ccc(-c3nc(-c4nc(C(=O)N/C(=C/C)C(=O)NC[C@@H](C)O)cs4)cs3)nc2-c2csc(n2)[C@H]([C@@H](C)O)NC(=O)c2csc(n2)[C@H](C(C)(C)O)NC(=O)c2csc1n2`, the 50% inhibitory concentration (IC50) amounted to 1.43 µM in the test on AGS; 0.99 µM in the test on SNU-638; 2.12 µM in the test on SK-HEP1; 7.5 µM in [7]; 11 µM in the test on MKN-74; 1.34 µM with HepG2 [3]. This compound registered an IC50 in the test on Hep 3B2 of 2.34 µM.
